Literature values, collected in US20100228037A1, “Process for Preparing Allylmercaptocaptopril (Cpssa) and Related Asymmetrical Disulfides” (Yeda Research And Development Co. Ltd. at the Weizmann …, priority 2006, published 2010).
Read-outs that look alike come from different tables or passages of the source.

Columns and labels:
[1] = system: rats
[2] = blood or plasma of mammals
[3] = in vitro, human blood
[4] = in vivo, rats
[5] = rats, immediately after administration

stability in blood or plasma [2]	SMILES	antihypertensive properties compared with unmodified captopril ([1]; rat, in vivo)	blood pressure [1, 5]	serum level of insulin [1, 5]	serum level of triglycerides [1, 5]	disintegration in blood after administration [3]	disintegration in blood after administration [4]
stable in blood or plasma of mammals	C=CCSSC[C@H](C)C(=O)N1CCC[C@H]1C(=O)O [CPSSA, allylmercaptocaptopril]	improved antihypertensive properties	significantly decreased blood pressure	to near normal levels	to near normal levels		
	C=CCS[S+]([O-])CC=C (stereo not shown) [allicin]					disintegrates in the blood a few minutes post its administration	disintegrates in the blood a few minutes post its administration
